The test system of test [1] is Ba/F3 cells expressing wild-type BCR-ABL (p210). In words: MTT cell viability assay, Ba/F3 cells expressing wild-type (p210) Bcr-Abl. It counts as cell-based, Murine. As to conditions: for potency relative to chloroquine (cell viability): chloroquine 25 μM control. From the text: (§1) A study conducted through the independent Cancer Therapy & Research Center, Institute for Drug Development at the University of Texas Health Science Center at San Antonio, Tex., evaluated lumefantrine as an autophagy inhibitor (i.e., “Lumefantrine Study”). […] 1; 110(1):313-22. Epub 2007 Mar. 15. PMID: 17363733”. Murine Ba/F3 cells that stably express wild-type BCR-ABL (p210) or the T315I mutated version of BCR-ABL, which confers resistance to imatinib and nilotinib were utilized for this study. Cells were propagated at 37° C. in a humidified atmosphere containing 5% carbon dioxide. Cell viability was determined using the MTT assay. This colorimetric procedure measures conversion of the MTT reagent (a tetrazoleum salt) to formazan by mitochondria. Formazan production was quantified by spectrophotometric measurement at 570 nm and was proportional to viable cell number. Cells were cultured and treated with different concentrations of the agent(s) for 48 hours. Following treatment, 50 μl of MTT was added to each well and allowed to incubate for 1-3 hours at 37° C. Each well was aspirated and 200 μl of DMSO was added to each well to dissolve the formazan. […] Lumefantrine was tested as potential autophagy inhibitor at final concentrations between one to forty micromolar. […] The ER stressor drugs tested and their final concentrations were GleevecTM (imatinib, Novartis, final 350 nM), […] (nilotinib, Novartis, final 35 nM) or ZolinzaTM (suberoylanilide hydroxamic acid, Merck, final 1 μM).

The test system of test [2] is Ba/F3 cells expressing T315I mutated BCR-ABL. Kind of test: MTT cell viability assay, Ba/F3 cells expressing mutant Bcr-Abl (T315I). The format is cell-based, Murine. The conditions noted are these: for potency relative to chloroquine (cell viability): chloroquine 25 μM control.
Text: as §1

Regarding `CCCCN(CCCC)CC(O)c1cc(Cl)cc2c1-c1ccc(Cl)cc1/C2=C\c1ccc(Cl)cc1` (racemic) [lumefantrine, 2-(dibutylamino)-1-[(9E)-2,7-dichloro-9-(4-chlorobenzylidene)-9H-fluoren-4-yl]ethanol], the “potency relative to chloroquine (cell viability)” value in test [1] (SAHA experiment, Ba/F3 p210) is recorded as “equipotent with chloroquine”; in test [1] (imatinib experiment, Ba/F3 p210), “equipotent with chloroquine”; in test [1] (nilotinib experiment, Ba/F3 p210), “equipotent with chloroquine”; in test [2] (SAHA experiment, Ba/F3 T315I), “equipotent with chloroquine”; in test [2] (imatinib experiment, Ba/F3 T315I), “equipotent with chloroquine”; in test [2] (nilotinib experiment, Ba/F3 T315I), “equipotent with chloroquine”. Also, the “cell viability (MTT, OD 570 nm)” value in test [1] (lumefantrine 1-40 micromolar, with and without SAHA 1 μM, 48 hours, Ba/F3 p210 (FIG. 2)) is “dose-dependent reductions in the cell viability”; in test [2] (lumefantrine 1-40 micromolar, with and without SAHA 1 μM, 48 hours, Ba/F3 T315I (FIG. 3)), “dose-dependent reductions in the cell viability”. Moreover, the “enhancement of suberoylanilide hydroxamic acid (SAHA) effect on proliferation/viability” value in test [1] (with SAHA 1 μM, 48 hours, Ba/F3 p210) is “enhanced the suberoylanilide hydroxamic acid drug response”; in test [2] (with SAHA 1 μM, 48 hours, Ba/F3 T315I), “enhanced the suberoylanilide hydroxamic acid drug response”. Moreover, the “augmentation of imatinib effects on cell viability” value in test [1] (with imatinib 350 nM, 48 hours, Ba/F3 p210 (FIG. 4)) is recorded as “augments the imatinib effects”; in test [2] (with imatinib 350 nM, 48 hours, Ba/F3 T315I (FIG. 5)) it was “the only effects on viability are those generated by lumefantrine alone”. Moreover, the “augmentation of nolotinb effects on cell viability” value is listed as “augments the nolotinb effects” in test [1] (with nilotinib 35 nM, 48 hours, Ba/F3 p210 (FIG. 6)) and “the only effects on viability are those generated by lumefantrine alone” in test [2] (with nilotinib 35 nM, 48 hours, Ba/F3 T315I (FIG. 7)).

(Values after patent publication US9439878B2, “Use of lumefantrine and related compounds in the treatment of cancer” (priority 2010, dated 2016).)
